Laboratory results reported in ChEMBL document CHEMBL1150819, “Microxine, a new cdc2 kinase inhibitor from the Australian marine sponge Microxina species” (J Nat Prod, 2001).
Active and inactive are the calls of the source. No cut-off for these calls is given here.

Tests used:
[1] = target: Cyclin-dependent kinase 1 (Homo sapiens, UniProt P06493)
P388 = test: Cytotoxicity against mouse P388 cells at 18 uM; type: functional, cell-based
A549 = test: Cytotoxicity against human A549 cells at 18 uM; type: functional, cell-based
[2] = target: T1, M-phase inducer phosphatase 1 (Homo sapiens) (UniProt P30304); test: Inhibition of Cdc25a up to 10 uM
T1 sequence (whole entry): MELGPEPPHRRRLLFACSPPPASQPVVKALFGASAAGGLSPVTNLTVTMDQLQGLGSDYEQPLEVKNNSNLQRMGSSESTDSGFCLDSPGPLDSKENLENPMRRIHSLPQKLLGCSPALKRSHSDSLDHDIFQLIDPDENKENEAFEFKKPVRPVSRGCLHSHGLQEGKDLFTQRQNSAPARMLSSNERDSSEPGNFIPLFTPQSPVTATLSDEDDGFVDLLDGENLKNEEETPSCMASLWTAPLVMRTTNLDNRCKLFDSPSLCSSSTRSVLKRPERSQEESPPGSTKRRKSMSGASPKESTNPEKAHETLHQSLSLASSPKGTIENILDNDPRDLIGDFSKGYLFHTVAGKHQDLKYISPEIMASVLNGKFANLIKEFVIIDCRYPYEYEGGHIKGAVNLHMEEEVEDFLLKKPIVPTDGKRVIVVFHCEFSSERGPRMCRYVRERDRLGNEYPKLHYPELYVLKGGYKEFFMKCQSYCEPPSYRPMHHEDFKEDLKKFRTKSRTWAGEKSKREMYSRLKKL

Sequence of Cyclin-dependent kinase 1 (P06493 whole entry): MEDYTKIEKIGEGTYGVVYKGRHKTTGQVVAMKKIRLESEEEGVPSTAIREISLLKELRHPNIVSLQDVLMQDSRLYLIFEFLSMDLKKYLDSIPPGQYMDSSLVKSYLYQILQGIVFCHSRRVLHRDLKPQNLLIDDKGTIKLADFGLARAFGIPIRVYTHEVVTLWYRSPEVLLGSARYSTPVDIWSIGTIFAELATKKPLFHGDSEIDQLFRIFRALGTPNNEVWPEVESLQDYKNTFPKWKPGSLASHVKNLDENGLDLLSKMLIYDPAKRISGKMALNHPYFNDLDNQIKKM

Cn1c(=O)[nH]c2ncnc(NCCS(=O)(=O)O)c21 [MICROXINE]
IC50 [1]: 13 µM
Activity (P388): inactive
Activity (A549): inactive
Activity [2]: inactive
